Measurements taken from ChEMBL document CHEMBL1201862, “PubChem BioAssay data set” (2004).
Calls of active or inactive are those of the source.

Assays:
[1] = target: T1, Corticotropin-releasing factor receptor 2/Corticotropin-releasing factor-binding protein (Homo sapiens, UniProt P24387+Q13324); assay: activators of CRF receptor 2 with binding protein – uHTS hits, confirmation (AID 602473); assay type: functional; details: read-out: EC50_Mean
T1 sequence (Q13324 whole entry): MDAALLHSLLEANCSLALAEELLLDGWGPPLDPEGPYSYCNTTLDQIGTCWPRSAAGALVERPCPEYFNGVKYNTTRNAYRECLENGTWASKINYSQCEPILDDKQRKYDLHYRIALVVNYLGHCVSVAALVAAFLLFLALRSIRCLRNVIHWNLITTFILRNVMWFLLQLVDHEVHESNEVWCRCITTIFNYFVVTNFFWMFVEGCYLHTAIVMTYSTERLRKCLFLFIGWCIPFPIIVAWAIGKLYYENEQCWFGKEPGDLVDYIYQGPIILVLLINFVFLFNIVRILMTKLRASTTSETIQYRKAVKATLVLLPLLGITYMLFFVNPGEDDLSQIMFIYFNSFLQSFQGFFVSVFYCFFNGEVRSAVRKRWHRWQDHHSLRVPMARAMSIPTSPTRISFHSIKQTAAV
T1 sequence (P24387 whole entry): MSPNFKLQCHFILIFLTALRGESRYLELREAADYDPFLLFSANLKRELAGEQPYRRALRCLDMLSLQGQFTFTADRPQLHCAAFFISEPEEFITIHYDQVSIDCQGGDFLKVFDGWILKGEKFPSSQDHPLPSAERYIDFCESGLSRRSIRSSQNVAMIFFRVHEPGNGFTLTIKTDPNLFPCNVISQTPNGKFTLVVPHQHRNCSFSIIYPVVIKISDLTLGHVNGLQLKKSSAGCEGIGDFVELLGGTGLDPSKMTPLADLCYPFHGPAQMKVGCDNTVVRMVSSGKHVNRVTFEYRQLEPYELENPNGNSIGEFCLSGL

[2] = target: T1, Corticotropin-releasing factor receptor 2/Corticotropin-releasing factor-binding protein; assay: Dose Response confirmation of uHTS hits for small molecule antagonists of the CRF-binding protein and CRF-R2 receptor complex.; assay type: functional; details: read-out: IC50_Mean
[3] = target: T2, Carboxy-terminal domain RNA polymerase II polypeptide A small phosphatase 1 (Homo sapiens, UniProt Q9GZU7); assay: CTDSP1 inhibitors, concentration-response, biochemical, absorbance readout, ultra-high-throughput screen actives (AID 540297); assay type: functional
T2 sequence (Q9GZU7 whole entry): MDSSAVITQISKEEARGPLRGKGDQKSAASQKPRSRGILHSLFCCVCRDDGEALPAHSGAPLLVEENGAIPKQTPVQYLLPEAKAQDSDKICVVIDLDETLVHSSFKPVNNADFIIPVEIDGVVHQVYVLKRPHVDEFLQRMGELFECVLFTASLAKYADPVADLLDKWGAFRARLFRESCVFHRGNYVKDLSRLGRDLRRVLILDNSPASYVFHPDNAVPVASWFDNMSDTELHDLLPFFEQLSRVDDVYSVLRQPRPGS

[4] = NIH-3T3 fibroblast cytotoxicity, dose response, cytotoxicity control, cell-based, fluorescence, Alamar Blue, secondary assay (AID 2327); assay type: functional;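 also: NIH-3T3 mouse fibroblasts cultured with fluconazole at 8 µg/mL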
[5] = fluconazole-exposed Candida albicans growth modulators – fluorescence, retest, confirmation (AID 2467); assay type: functional, cell-based
[6] = viability of uninfected HEp-2 cells – cell-based, HTS, cytotoxicity control for RSV inhibitor project, dose response (AID 2410); assay type: functional; details: human respiratory syncytial virus
INS1 = assay: INS-1E survival protection against cytokine death – cell-based, luminescence, retest, dose response (AID 449756); assay type: functional; details: Rattus norvegicus;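 also: cell death triggered by IL-1 beta plus TNF-alpha plus IFN-gamma mixture; protective hits raise ATP signal compared with cytokine alone wells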
cells = assay type: functional
[7] = Trypanosoma cruzi growth suppression in host cells – NIH3T3 host cells, beta-gal luminescence, confirmation (AID 2044); assay type: functional, cell-based;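 also: intracellular parasites grown in NIH/3T3 mouse fibroblasts as host cells; luminescent beta-galactosidase reporter signal from transgenic T. cruzi replicating inside host cells; inhibitors lower the luminescence signal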
[8] = NIH3T3 cell viability loss – ATP luminescence, mouse fibroblasts, counter-screen, dose response (AID 2010); assay type: functional, cell-based;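 also: cells exposed to compound for about 90 hours before reading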
[9] = tested on: Streptococcus sp. 'group A'; assay: Streptococcus pyogenes SK(-)GAS viability under kanamycin – luminescence, BacTiterGlo, confirmation, counter-screen for streptokinase expression inhibitor project, dose response (AID 1900); assay type: functional, organism-based
Streptococcus = assay: GAS UMAA2166 growth inhibition – luminescence, BacTiterGlo, counter-screen for streptokinase expression inhibitor project, dose response (AID 1915); assay type: functional, organism-based;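 also: potency for reduction of bacterial viability or growth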
Streptokinase A = target: T3, Streptokinase A (Streptococcus pyogenes serotype M1, UniProt P10520); assay: viability-normalized secreted streptokinase activity reduction – plasminogen activation absorbance, OD405, dose response (AID 1914); assay type: functional, Streptococcus pyogenes M1 GAS;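 also: secreted streptokinase activity via plasminogen activation per viability signal from cell pellet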
T3 sequence (P10520 whole entry): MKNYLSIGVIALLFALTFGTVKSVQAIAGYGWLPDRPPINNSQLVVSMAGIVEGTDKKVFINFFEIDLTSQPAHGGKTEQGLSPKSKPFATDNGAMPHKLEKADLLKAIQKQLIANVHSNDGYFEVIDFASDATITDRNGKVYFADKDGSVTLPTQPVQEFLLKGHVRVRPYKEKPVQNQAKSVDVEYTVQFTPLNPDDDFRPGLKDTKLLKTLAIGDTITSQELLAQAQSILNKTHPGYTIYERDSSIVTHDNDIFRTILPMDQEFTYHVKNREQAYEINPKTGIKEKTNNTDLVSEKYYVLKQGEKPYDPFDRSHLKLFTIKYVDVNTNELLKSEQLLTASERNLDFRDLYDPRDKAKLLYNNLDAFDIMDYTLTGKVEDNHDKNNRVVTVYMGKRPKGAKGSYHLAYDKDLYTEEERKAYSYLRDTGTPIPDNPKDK

Cytochrome P450 3A4 = Cytochrome P450 3A4 (Homo sapiens, UniProt P08684);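 also: CYP3A4 tested as one member of a cytochrome P450 panel screen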
Cytochrome P450 2C19 = Cytochrome P450 2C19 (Homo sapiens, UniProt P33261); assay: Cytochrome panel assay with activity outcomes. Panel member name: p450-cyp2c19 Compounds with AC50 equal or less than 10 uM are considered active; assay type: functional; details: read-out: AC50
Cytochrome P450 2D6 = Cytochrome P450 2D6 (Homo sapiens, UniProt P10635);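 also: CYP2D6 member of a cytochrome P450 panel assay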
Cytochrome P450 2D6, sequence (P10635 whole entry): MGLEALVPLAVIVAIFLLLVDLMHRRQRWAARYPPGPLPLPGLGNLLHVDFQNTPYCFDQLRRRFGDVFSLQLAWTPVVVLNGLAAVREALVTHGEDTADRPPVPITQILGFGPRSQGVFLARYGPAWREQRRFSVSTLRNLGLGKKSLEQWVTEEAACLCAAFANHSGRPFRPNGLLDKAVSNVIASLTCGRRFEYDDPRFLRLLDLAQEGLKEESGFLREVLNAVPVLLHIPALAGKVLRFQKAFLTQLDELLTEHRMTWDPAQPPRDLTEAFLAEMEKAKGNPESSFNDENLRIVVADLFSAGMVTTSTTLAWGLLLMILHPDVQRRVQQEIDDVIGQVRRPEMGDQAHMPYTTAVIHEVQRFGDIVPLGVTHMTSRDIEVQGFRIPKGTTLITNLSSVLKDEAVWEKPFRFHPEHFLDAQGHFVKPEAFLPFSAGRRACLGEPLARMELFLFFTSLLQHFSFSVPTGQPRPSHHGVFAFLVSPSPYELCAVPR

Cytochrome P450 3A4, sequence (P08684 whole entry): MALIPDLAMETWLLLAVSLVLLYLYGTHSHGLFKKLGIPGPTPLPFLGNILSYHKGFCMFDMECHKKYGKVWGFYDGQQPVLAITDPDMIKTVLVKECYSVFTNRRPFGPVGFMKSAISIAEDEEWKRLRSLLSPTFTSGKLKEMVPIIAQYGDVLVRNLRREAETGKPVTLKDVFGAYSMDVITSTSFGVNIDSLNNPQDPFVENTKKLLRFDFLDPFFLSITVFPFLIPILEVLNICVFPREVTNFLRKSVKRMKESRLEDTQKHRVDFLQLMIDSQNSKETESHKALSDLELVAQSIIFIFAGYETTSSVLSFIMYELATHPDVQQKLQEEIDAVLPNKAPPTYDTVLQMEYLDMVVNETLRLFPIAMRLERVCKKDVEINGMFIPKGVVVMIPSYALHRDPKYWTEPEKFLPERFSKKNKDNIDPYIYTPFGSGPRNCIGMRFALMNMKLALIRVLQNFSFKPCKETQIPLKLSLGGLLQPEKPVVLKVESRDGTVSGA
Cytochrome P450 2C19, sequence (P33261 whole entry): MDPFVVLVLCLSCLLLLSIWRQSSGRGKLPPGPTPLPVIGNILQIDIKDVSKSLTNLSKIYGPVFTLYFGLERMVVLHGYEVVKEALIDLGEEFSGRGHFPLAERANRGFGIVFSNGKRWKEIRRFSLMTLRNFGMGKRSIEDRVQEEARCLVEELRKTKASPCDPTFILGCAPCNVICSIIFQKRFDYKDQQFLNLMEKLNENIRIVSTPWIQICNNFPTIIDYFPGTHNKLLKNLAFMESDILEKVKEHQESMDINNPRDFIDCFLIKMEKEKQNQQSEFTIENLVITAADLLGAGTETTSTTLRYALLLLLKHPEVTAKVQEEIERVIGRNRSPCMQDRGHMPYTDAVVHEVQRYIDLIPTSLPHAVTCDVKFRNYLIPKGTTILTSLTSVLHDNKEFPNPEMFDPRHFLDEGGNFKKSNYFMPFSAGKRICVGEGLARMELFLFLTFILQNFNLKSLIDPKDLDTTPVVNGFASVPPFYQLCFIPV

## Cc1cccc(N2C(N)=NC(N)=NC23CCCCC3)c1
[1]
  EC50: > 53 µM (inactive)
[2]
  IC50: > 47.1 µM (inactive)

## CCCNC(=O)C1CC(=O)N(c2ccc(OCC)cc2)C1 (configuration not stated)
[1]
  EC50: > 53 µM (inactive)
[2]
  IC50: > 47.1 µM (inactive)

## CCO[C@@H]1OC(C(N)=O)=C[C@H](C(C)(C)C)[C@H]1CCCO
[1]
  EC50: > 53 µM (inactive)
[2]
  IC50: > 47.1 µM (inactive)

## Cc1ccc(-c2c(NCCc3ccccc3)c(=O)c2=O)cc1
[3]
  IC50: 9.66 µM (active)

## CC(C)(C)C1CCC(OC(=O)C[N+]2(C)CCCCC2)CC1 (configuration not stated)
[4]
  EC50: 18.1 µM (active)
[5]
  EC50: > 38 µM (not active)

## Cc1ccc(/C=C/c2onc(C)c2S(=O)(=O)N2CCC(C(=O)N3CCCCC3)CC2)cc1
[6]
  CC50: > 50 µM (active)

## CCn1c(N=NO)nc2ccccc21
[4]
  EC50: 21.9 µM (active)
[5]
  EC50: > 38 µM (not active)
INS1
  AC50: 1.83 µM (active)

## O=C(COC(=O)c1ccc(Br)o1)NCCCc1ccccc1
cells
  IC50: 38.5 µM (active)

## O=C(NCc1cccnc1)c1ccc(-c2cccc(Cl)c2Cl)o1
[4]
  EC50: > 38 µM (inactive)
[7]
  EC50: 0.92 µM (active)
[8]
  EC50: > 60 µM (not active)
[5]
  EC50: > 38 µM (not active)

## O=C(CCS(=O)(=O)c1ccc(Br)cc1)NCCc1ccccc1
[3]
  IC50: 26.3 µM (active)

## COc1ccccc1N1CCN(Cc2nc(N)nc(Nc3ccc(C)c(Cl)c3)n2)CC1
[9]
  EC50: 10.7 µM (active)
Streptococcus
  EC50: 20.4 µM (active)
Streptokinase A
  EC50: > 150 µM (inconclusive)
[6]
  CC50: 19.6 µM (active)

## CCC1CCc2sc(C(=O)NNC(=O)c3ccncc3)cc2C1 (configuration not stated)
cells
  IC50: 21.6 µM (active)

## CC[C@]12c3[nH]c4ccc(OC)cc4c3CCN1C(=O)C(CC(=O)NCCCOC)C[C@@H]2C(=O)N1CCN(C(=O)c2ccco2)CC1 (some centres not stated)
[1]
  EC50: > 53 µM (inactive)
[2]
  IC50: > 47.1 µM (inactive)

## CCOc1ccc2nc(O)c(O)nc2c1
[6]
  CC50: 45.8 µM (active)

## CCCCC(=O)OCc1cn(-c2ccc(Cl)cc2)nn1
Cytochrome P450 3A4
  AC50: 39.8 µM (inconclusive)
Cytochrome P450 2C19
  AC50: 2.24 µM (inconclusive)
Cytochrome P450 2D6
  AC50: 25.1 µM (inconclusive)

## COc1ccccc1-c1ccc2ncnc(NCc3cnc(C)cn3)c2c1
Cytochrome P450 3A4
  AC50: 10 µM (inconclusive)
Cytochrome P450 2C19
  AC50: 39.8 µM (inconclusive)
Cytochrome P450 2D6
  AC50: 39.8 µM (inconclusive)

## Cc1cc(Cl)ccc1NNC(=O)c1snnc1C
[4]
  EC50: 16.8 µM (inconclusive)
[5]
  EC50: 1.59 µM (active)

## NC(=O)C1=C[C@@H](c2csc3ccccc23)C[C@@H](OCc2ccc(CO)cc2)O1
[6]
  CC50: 15.5 µM (active)

## COc1ccc(CN(C(=O)CSc2nnc(-c3ccccc3F)o2)c2ccc(F)cc2)cc1
[6]
  CC50: 23.1 µM (active)

## CCN(CC)c1cccc(OC2=NS(=O)(=O)c3ccccc32)c1
[4]
  EC50: > 150 µM (inactive)
[5]
  EC50: 5.06 µM (active)

## CSc1nc2ccc(NC(=O)C3CC(=O)N(Cc4ccccc4)C3)cc2s1 (configuration not stated)
cells
  IC50: 11.4 µM (active)

## Cc1cc(C)cc(NC(=O)Cn2nnc(C(=O)NCc3ccc(F)cc3)c2N)c1
[1]
  EC50: > 53 µM (inactive)
[2]
  IC50: > 47.1 µM (inactive)

## CC1(c2ccccc2)CC(C)(C)N(C(=O)CSc2nnc(N)s2)c2ccccc21 (configuration not stated)
[6]
  CC50: 22.9 µM (active)

## CS(=O)(=O)N(CC(=O)Nc1c(F)cccc1F)c1ccc(C23CC4CC(CC(C4)C2)C3)cc1
Cytochrome P450 3A4
  AC50: 15.8 µM (inconclusive)
[7]
  EC50: 2.25 µM (active)
[8]
  EC50: 10.6 µM (active)
Cytochrome P450 2D6
  AC50: 4.47 µM (inconclusive)

## N=c1ccn(Cc2ccc(Cl)cc2Cl)cc1
INS1
  AC50: 7.25 µM (active)

## Cc1cccc(NC(=O)CN2C(=O)S/C(=C\c3ccc(-c4cccc(C(=O)O)c4C)o3)C2=O)c1
[3]
  IC50: 3.95 µM (active)

## O=C(OCC(=O)N1CCCC1)c1cc(Br)ccc1Cl
cells
  IC50: 22 µM (active)

## O=C(CN1CCN(S(=O)(=O)c2ccccc2)CC1)Nc1ccc2c(c1)CCC2
[4]
  EC50: > 150 µM (inactive)
[5]
  EC50: > 38 µM (not active)

## Cc1oncc1-c1csc(-c2ccccc2)n1
[6]
  CC50: 36.5 µM (active)

## O=C(N/N=C/C=C/c1ccco1)c1ccncc1
cells
  IC50: 1.31 µM (active)

## Cc1sc2ncnc(SCC(=O)Nc3ncccc3O)c2c1C
[3]
  IC50: 5.35 µM (active)

## Cc1ccc(S(=O)(=O)NNC(=O)c2ccc(NC(=O)C3CC3)cc2)cc1
[4]
  EC50: > 150 µM (inactive)
[5]
  EC50: 12.7 µM (active)

## COc1ccc(OC)c(C(c2nnnn2C2CCCC2)N2CCc3ccccc3C2)c1 (configuration not stated)
[6]
  CC50: 24 µM (active)

## COc1cc(C(=O)O)c2ccccc2n1
[1]
  EC50: > 53 µM (inactive)
[2]
  IC50: < 0.368 µM (active)

## CCOc1cc(S(=O)(=O)NCc2ccccc2)c(OCC)cc1-n1cnnn1
[4]
  EC50: > 150 µM (inconclusive)
[5]
  EC50: 3.34 µM (active)
